Experimental findings from patent US20230151432A1, “KIF18A INHIBITORS FOR TREATMENT OF NEOPLASTIC DISEASES” (AMGEN INC., priority 2020, published 2023) are described below.

Data set [1] concerns KIF18A protein localization in HeLa cells. Description: KIF18A and Centrin-3 immunostaining. The class given is cell-based, human. The conditions noted are these: 0.05 μM, 6 hours. As to the method:
To analyze the effect of KIF18A protein localization in cancer cells treated with a KIF18A inhibitor, KIF18A and Centrin-3 immunostaining in HeLa cells (FIG. 11). Cells were seeded into Lab-Tek 2-well chamber slides at a density of 100,000 cells per chamber in complete growth media and grown for 2 days to approximately 80% confluency. Cells were treated for 6 hours with DMSO, KIF18A inhibitor (Compound C9, 0.05 μM) in 2 mL of complete media. Cells were fixed in 4% formaldehyde for 15 minutes at room temperature followed by secondary fixation in ice-cold 90% methanol for 10 minutes at 4° C. After fixation, cells were washed in 2 mL of Wash Buffer (1% BSA, 0.2% Triton X-100, 1×PBS) and blocked 1 mL of Blocking Buffer (2 drops of horse serum (Vector Labs, Burlingame, Calif.) per 5 mL Wash Buffer). Cells are stained with anti-KIF18A rabbit antibody (1:3000, A301-080A 05-806, Bethyl) and anti-CETN3 mouse antibody (1:1000, H00001070-M01, Abnova) in 1 mL of Wash Buffer for 2 hours at room temperature. Cells were washed twice with 2 mL Wash Buffer. […] Wide-field images were captured using 40×objective on upright Nikon Eclipse NI-E epi-fluorescence microscope running Elements software. […]

In data set [2] the target is T1, mouse KIF18A (residues 1-467) (Mus musculus, UniProt Q91WD7).
T1 construct: mouse KIF18A (residues 1-467, 4 nM); made in house
Description: KIF18A MT-ATPase motor activity, ADP-Glo luminescence assay (Example 19). Type of data set: biochemical. The conditions noted are these: mouse KIF18A 4 nM, 30 μM ATP; read-out: IC50, KIF18A motor activity (MT-ATPase). As to the method:
A trio of KIF18A inhibitors (Compound C9, Compound C11, and Compound C12) were synthesized and tested in vitro for KIF18A inhibitory activity. […] The values represent mean t SEM from three independent experiments. […] As in vivo studies in mice were planned, the mouse KIF18A inhibitory effects of Compound C9 and C12 were assayed.
KIF18A compounds C9, C11, C12 were 2-fold serially diluted over a 22-point concentration range in DMSO using 384-well plate (Corning). Recombinant truncated kinesin motor proteins (human KIF18A (residues 1-467, 4 nM), mouse KIF18A (residues 1-467, 4 nM)) were expressed and purified. ADP-Glo luminescence assay (Promega) was used to measure the MT-ATPase motor activity. Porcine brain MTs were procured from Cytoskeleton Inc. Compounds were pre-incubated for <30 min in reaction buffer (15 mM Tris, pH 7.5, 10 mM MgCl2, 0.01% Pluronic F-68, 2% DMSO, 1 μM paclitaxel, 30 μg/mL MTs) with motor proteins at concentrations indicated above, 30 μM ATP was added to initiate the enzymatic reaction for 15 min at room temperature (RT). ADP-Glo reagents were added according to manufactures protocol, the luminescence intensity proportional to ADP present was measured using an EnVision plate reader (Perkin Elmer). Raw luminescence signal data was normalized to POC (percentage of positive control) and then Activity (%) was computed [POC=100×(sample signal−negative control signal)+(positive control signal−negative control signal). Activity (%)=POC−100]. The positive control (enzyme+substrate) and negative control (substrate alone) had equivalent concentrations of DMSO. Curve-fitting and IC50 values were determined by 4-parameter non-linear regression equation (variable slope) using GraphPad Prism 7.05 (GraphPad Software).

Data set [3] relates to panel of cancer cell lines including breast cancer cell lines, ovary cancer cell lines, and a prostate cancer cell line. Nature of the data set: 4-day image-based nuclear count assay (NCA), cancer cell line panel. Also on record: species or system human. Here is the method: Eg5 motor inhibitor (Ispinesib) was used as a cytotoxic control. […] Cancer cell lines were seeded in a Corning 96-well Flat Clear Bottom Black Polystyrene plate (Corning, N.Y.) in 100 μL of appropriate complete media at the appropriate density and grown for 24 hours. In one set of experiments, in preparation for cell treatment, a 2× concentration of one of: […] The compound was added to the cells with a final volume of 200 μL in complete media containing 0.5% DMSO. After 4 days (96 hours) or 6 days (144 hours) of treatment, the cells were fixed by removing 100 μL of complete media from each well and replacing it with 100 μL of 2×formaldehyde (final 4%) and incubating the plates for 15 minutes at room temperature. After fixation, the cells were permeabilized and stained in 200 μL Wash Buffer (1% BSA, 0.2% Triton X-100, 1×PBS) containing 2 μg/mL Hoechst 33342 DNA dye. The plates were sealed and incubated for 1 hour at room temperature in the dark. Cells were stored at 4° C. in the dark until data acquisition. Imaging data was acquired on Cellomics ArrayScan VTI HCS Reader (SN03090745F, ThermoFisher Scientific) using the Target Activation V4 Assay protocol (Ve 6.6.0 (Build 8153) with a 10×objective, collected 16-fields per well). […] A Mean Count EC50 value (±SD) across all sensitive cell lines was determined for each test agent.

Data set [4] relates to human foreskin fibroblast (hFSF) cells. Nature of the data set: BrdU incorporation assay in normal cells. The class given is cell-based. Particulars: 48 hours. Here is the method: (§1) The effect KIF18A inhibitor treatment has on proliferation of normal somatic cells (e.g., not neoplastic cells) was tested by assaying proliferation of human bone marrow mononuclear cells (HBMNCs), primary human foreskin fibroblast cells (hFSF) and human mammary epithelial cells via a 5-bromo-2′-deoxyuridine (BrdU) incorporation assay in which BrdU, an analog of the nucleoside thymidine, is used to identify proliferating cells (Payton et. al., Molecular Cancer Therapeutics, 17(12):2575-85 (2018)). Cells were analyzed on BD LSRFortessa flow cytometer using BD FACSDiva software (BD Biosciences), and post-acquisition data analysis was performed using FSC-Express software (De Novo). The percentage of BrdU positive gated events on the stacked DNA content histograms were reported.
(Incorporation of labelled thymidine or its analogues reports DNA synthesis.)

Data set [5] concerns human mammary epithelial cells (HMEC). Nature of the data set: BrdU incorporation assay in normal cells. Type of data set: cell-based. Particulars: 48 hours. As to the method:
as §1

T1 sequence (Q91WD7 1-467): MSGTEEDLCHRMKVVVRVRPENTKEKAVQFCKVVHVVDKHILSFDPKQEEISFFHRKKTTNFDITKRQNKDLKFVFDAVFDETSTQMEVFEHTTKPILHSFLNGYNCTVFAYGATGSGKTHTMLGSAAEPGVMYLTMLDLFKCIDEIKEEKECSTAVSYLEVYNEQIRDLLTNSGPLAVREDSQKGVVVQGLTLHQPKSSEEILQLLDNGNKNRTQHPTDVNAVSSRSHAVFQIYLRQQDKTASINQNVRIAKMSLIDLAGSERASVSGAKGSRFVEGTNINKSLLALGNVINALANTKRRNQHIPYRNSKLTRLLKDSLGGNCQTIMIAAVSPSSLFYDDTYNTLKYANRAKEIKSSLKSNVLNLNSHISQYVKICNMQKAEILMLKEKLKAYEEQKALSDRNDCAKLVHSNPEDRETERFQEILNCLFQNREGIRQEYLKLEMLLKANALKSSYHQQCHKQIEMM
T1 sequence (P02550 whole entry partner, the tested form may be a part): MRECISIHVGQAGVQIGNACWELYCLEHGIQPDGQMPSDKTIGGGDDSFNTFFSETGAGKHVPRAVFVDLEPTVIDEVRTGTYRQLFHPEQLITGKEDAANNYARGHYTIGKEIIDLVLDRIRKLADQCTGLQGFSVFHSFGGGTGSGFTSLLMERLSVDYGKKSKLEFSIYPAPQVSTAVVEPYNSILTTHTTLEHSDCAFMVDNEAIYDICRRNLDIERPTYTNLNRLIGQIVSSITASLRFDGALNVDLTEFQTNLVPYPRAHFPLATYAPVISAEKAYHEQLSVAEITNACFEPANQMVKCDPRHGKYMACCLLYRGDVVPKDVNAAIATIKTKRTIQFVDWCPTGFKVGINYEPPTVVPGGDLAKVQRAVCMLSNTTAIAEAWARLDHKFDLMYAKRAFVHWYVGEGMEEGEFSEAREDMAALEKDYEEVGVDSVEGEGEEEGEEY
T1 sequence (P02554 whole entry partner, the tested form may be a part): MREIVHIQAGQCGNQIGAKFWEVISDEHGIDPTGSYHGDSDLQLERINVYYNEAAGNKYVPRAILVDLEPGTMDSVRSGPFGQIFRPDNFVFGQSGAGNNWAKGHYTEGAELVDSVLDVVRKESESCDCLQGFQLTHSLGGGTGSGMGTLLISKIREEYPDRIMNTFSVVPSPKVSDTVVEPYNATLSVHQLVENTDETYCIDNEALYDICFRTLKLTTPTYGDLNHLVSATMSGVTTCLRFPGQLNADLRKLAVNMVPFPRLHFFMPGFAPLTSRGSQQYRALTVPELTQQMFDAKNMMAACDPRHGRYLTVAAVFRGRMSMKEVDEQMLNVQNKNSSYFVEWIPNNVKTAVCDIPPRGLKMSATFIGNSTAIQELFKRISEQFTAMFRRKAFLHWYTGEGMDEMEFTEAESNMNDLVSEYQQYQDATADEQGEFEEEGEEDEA

For orientation: IC50 means the concentration that inhibits the measured activity by half. On to `CC(C)(C)NS(=O)(=O)c1cccc(NC(=O)c2ccc(S(=O)(=O)NC(C)(C)C)cc2N2CCC3(CC2)CC3)c1` [Compound C9, 4-(N-(tert-butyl)sulfamoyl)-N-(3-(N-(tert-butyl)sulfamoyl)phenyl)-2-(6-azaspiro[2.5]octan-6-yl)benzamide], for which the “KIF18A protein localization in mitosis” value in data set [1] is reported as “KIF18A protein mis-localization in mitosis”. Moreover, the half-inhibitory concentration (IC50) in data set [2] turned out to be 232 nM.
For orientation: EC50 means the midpoint of the concentration-response curve. A low value points to a more potent agent. In data set [3] (Homo sapiens, 96 h, mean across the seven sensitive (TP53 mutant) of twelve cell lines, SD ±0.008), `Cc1cc(NC(=O)c2ccc(NS(=O)(=O)CCO)cc2N2CCC3(CC2)CC3)nc(N2CCC(F)(F)CC2)n1` [Compound C14, N-(2-(4,4-Difluoropiperidin-1-yl)-6-methylpyrimidin-4-yl)-4-((2-hydroxyethyl)sulfonamido)-2-(6-azaspiro[2.5]octan-6-yl)benzamide] returned an EC50 of 56.3 nM. Moreover, the “sensitivity in nuclear count assay” value in data set [3] (five Rb-proficient lines: CAL-51, ZR-75-1, MCF-7, OVCAR-5 (TP53 WT), MDA-MB-453 (TP53 NULL)) is on record as “insensitive (if the Span did not exceed >50%, the cell line was considered insensitive)”.
For the compound `CC(C)(CO)Nc1ccc(C(=O)Nc2cccc(S(=O)(=O)C3CCCC3)c2)c(N2CCC3(CC2)CC3)n1` [Compound C11, N-(3-(cyclopentylsulfonyl)phenyl)-6-((1-hydroxy-2-methylpropan-2-yl)amino)-2-(6-azaspiro[2.5]octan-6-yl)nicotinamide], the “BrdU incorporation relative to DMSO treated cells” value in data set [4] and in data set [5] was “not impacted at concentrations <10 μM” throughout.
